Measurements from patent US12286401B2, “Small molecules that sensitize HIV-1 infected cells to antibody dependent cellular cytotoxicity” (THE TRUSTEES OF THE UNIVERSITY OF PENNSYLVANIA, priority 2018, dated 2025).
Where “and” joins values, the source holds several entries; their conditions need not be identical. Identical values can stand only once. Entries after “also recorded” stand apart in the source; their conditions may differ.

These molecules were tested on CH58TF infected primary CD4+ T-cells (assay: HIV+ patient sera/plasma recognition of CH58TF infected primary CD4+ T-cells (flow cytometry cell-surface staining)). Details: Human immunodeficiency virus 1, T-cell, read-out: Fold Over DMSO (patient sera, n = 3).
Format: cell-based, HIV-1
Procedure: Cell-surface staining of primary CD4+ T cells from healthy HIV uninfected individuals or CEM-NKr cells is performed, as described in Prevost, “Influence of the Envelope gp120 Phe 43 Cavity on HIV-1 Sensitivity to Antibody-Dependent Cell-Mediated Cytotoxicity Responses,” 2017, J. Virol 91; Richard, “CD4 mimetics sensitize HIV-1-infected cells to ADCC,” 2015, Proc. Natl. Acad. Sci. USA, 112:E2687-2694; Richard, “Small CD4 Mimetics Prevent HIV-1 Uninfected Bystander CD4+ T Cell Killing Mediated by Antibody-dependent Cell-mediated Cytotoxicity,” 2016, EBioMedicine 3:122-134; Veillette, “The HIV-1 gp120 CD4-Bound Conformation Is Preferentially Targeted by Antibody-Dependent Cellular Cytotoxicity-Mediating Antibodies in Sera from HIV-1-Infected Individuals,” 2015, J. Virol., 89:545-551; Veillette, “Interaction with cellular CD4 exposes HIV-1 envelope epitopes targeted by antibody-dependent cell-mediated cytotoxicity,” 2014, J. Virol., 88:2633-2644; Richard, “Uninfected Bystander Cells Impact the Measurement of HIV-Specific Antibody-Dependent Cellular Cytotoxicity Responses,” 2018, MBio. 9(2): e00358-18; Richard, “BST-2 Expression Modulates Small CD4-Mimetic Sensitization of HIV-1-Infected Cells to Antibody-Dependent Cellular Cytotoxicity,” 2017, J. Virol. 91(11):e00219-17. Binding of HIV-1 infected cells by HIV+ sera (1:1000 dilution) or anti-Env Abs (such as 17b) is performed […] in vitro infection at 37° C. in presence of different concentrations of the MCG analogs or with equivalent volume of vehicle (DMSO). Cells infected with HIV-1 primary isolates are stained intracellularly for HIV-1 p24 using the Cytofix/Cytoperm Fixation/Permeabilization Kit (BD Biosciences, Mississauga, ON, Canada) and then fluorescent anti-p24 mAb (PE-anti-p24, clone KC57; Beckman Coulter/Immunotech, Hialeah, FL) (1:100 final concentration). The percentage of infected cells (p24^+ or GFP+ cells) is determined by gating the living cell population based on the viability dye staining. Samples are analyzed on an LSRII cytometer (BD Biosciences, Mississauga, ON, Canada) and data analysis is performed using FlowJo vX0.7 (Tree Star, Ashland, OR, USA).
HIV+ Patient Sera (n=3) Recognition of CH58TF Infected Primary CD4+ T-Cells
Staining with patient sera and 50 μM of compounds given as a fold change over DMSO (vehicle).
Briefly, Primary CD4 T cells isolated from PBMC were infected with HIV-1CH58TF for 48 hours. For cell surface staining, 5 μg/ml 17b (FIG. 15A) or 1:1000 diluted HIV+ plasma (n=15) (FIG. 15B) were used in the presence of the different MCG analogs (50 μM), (+)-BNM-III-170 or with an equivalent volume of vehicle (DMSO). An Alexa Fluor 647-conjugated anti-human IgG secondary Ab was then used for fluorescent labeling. For ADCC (FIG. 15C), infected cells were used as target cells in a FACS-based ADCC assay that measures the killing of infected (p24+ cells). See, Madani, 2016, J. Virol., 90:5031-5046. The assay determines susceptibility to ADCC mediated by a 1/1,000 dilution of plasma from 15 HIV-1-infected individuals in the presence of the different MCG analogs (50 μM), (+)-BNM-III-170 (50 μM) or with an equivalent volume of vehicle (DMSO). Correlation between cell-surface staining with HIV+ plasma and ADCC was calculated using the Spearman rank correlation (FIG. 15D).

Compared with `O=C(Nc1ccc(Cl)c(F)c1)[C@H]1CCCN(S(=O)(=O)c2cccnc2)C1` [(S)-MCG-III-116-A01], `O=C(Nc1ccc(Cl)c(F)c1)[C@H]1CCCN(S(=O)(=O)C2CCCCC2)C1` [(S)-MCG-III-116-A03] is lower in fold induction at 50 µM: 2.15 for the first, 1.56 for the second.

The molecules below were run on HIV-1JR-FL EnvΔCT expressed at the surface of HOS cells (assay: Cell-based ELISA (CBE), 17b readout). Details: MCG analogs 50 μM; BNM-III-170 5 μM; 2G12 and DMSO normalized.
Procedure: Detection of trimeric HIV-1 Env at the surface of HOS cells was performed by cell-based ELISA, as described in Desormeaux, “The highly conserved layer-3 component of the HIV-1 gp120 inner domain is critical for CD4-required conformational transitions,” J. Virol. 87:2549-2562; Alsahafi, “Effects of the I559P gp41 change on the conformation and function of the human immunodeficiency virus (HIV-1) membrane envelope glycoprotein trimer,” 2015, PLoS One 10:e0122111; and Veillette, “Conformational evaluation of HIV-1 trimeric envelope glycoproteins using a cell-based ELISA assay,” 2014, J. Vis. Exp., 91:51995. To enhance cell-surface expression of HIV-1 EnvRF a stop codon was introduced to replace the codon for Gly 711, truncating the cytoplasmic tail (ACT). Briefly, HOS cells were seeded in T-75 flasks (3×10^6 cells per flask) and transfected the next day with 22.5 μg of Env-expressing plasmids (wild-type and mutants S375W, S375T, H66A, A582T/L587A, etc) using the standard polyethylenimine (PEI, Polyscience Inc, PA, USA) transfection method. Twenty-four hours after transfection, cells were plated in 384-wells plates (2×10^4 cells per well). One day later, cells were washed twice with blocking buffer (10 mg/mL non-fat dry milk, 1.8 mM CaCl2), 1 mM MgCl2, 25 mM Tris, pH 7.5 and 140 mM NaCl) and then incubated for 30 minutes at room temperature with different concentrations of MCG analogs or equivalent volume of vehicle (DMSO). Cells were then incubated for an additional 1 h at room temperature with anti-HIV-1 Env monoclonal antibodies recognizing CD4-induced gp120 epitopes (17b, A32), CD4-binding site gp120 epitopes (VRC03, VRC01, F105, and b12), gp120 V3 glycans (19b, PGT126, PGT122, and 10.1074), gp120 outer domain (2G12), and gp120-gp41 interface (PGT151 and VRC34) epitopes. All ligands were diluted in blocking buffer. A horseradish peroxidase-conjugated antibody specific for the Fc region of human or mouse IgG (Pierce) was then incubated with the samples for 45 minutes at room temperature. For all conditions, cells were washed 5 times with blocking buffer and 5 times with washing buffer (1.8 mM CaCl2), 1 mM MgCl2, 25 mM Tris, pH 7.5 and 140 mM NaCl). HRP enzyme activity was determined after the addition of 20 μl per well of a 1:1 mix of Western Lightning oxidizing and luminol reagents (Perkin Elmer Life Sciences). Light emission was measured with an LB 941 TriStar luminometer (Berthold Technologies) and analysis with Graph Pad software.
The data of Table 2 is given as the fold over BNM-III-170 (5 μM) of Cell-Based ELISA with MCG Analogs (50 μM)—17b readout, 2G12 and DMSO normalized.
To identify molecules able to expose vulnerable Env epitopes, a cell-based ELISA (CBE) assay was adapted, capable of measuring conformational changes of membrane-bound trimeric Env as described in Veillette, 2014, J. Vis. Exp. doi:10.3791/51995:51995; Haim, 2011, PLoS Pathog 7:e1002101, into a high-throughput screening (HTS) platform (FIG. 10A). Briefly, the cytoplasmic-tail deleted HIV-1JR-FL Tier-2/3 Env was expressed on the surface of HOS cells in a 384-well-plate format. The cytoplasmic tail of Env was deleted to enhance Env expression at the cell surface and therefore enhance the sensitivity of the CBE assay. See, Veilette and Haim, 2009, PLoS Pathog 5:e100036. Small molecules or, as a positive control, soluble (sCD4) were added to expose the HIV-1JR-FL EnvΔCT epitope that can be recognized by the CD4i antibody 17b. See, Wyatt, 1995, J. Virol. 69:5723-5733; Rizzuto, 1998, Science 280:1949-1953.
17b binding was detected by a horseradish peroxidase-conjugated (HRP) second antibody, and HRP enzyme activity was measured by Western Lightning oxidizing and luminal reagents. 17b binding in the presence of sCD4 was set as the control (FIG. 10B, blue dots), small molecules that enhanced 17b binding above 25% of the one induced by sCD4 were retested in quadruplicate and only one molecule (UM0059920) was deemed a true positive (FIG. 10B, red dots). […]

First: CCCNC(=O)N1C[C@H](N)C[C@H](C(=O)Nc2ccc(Cl)c(F)c2)C1 [(3R,5S)-MCG-IV-226]
Second: NCCNC(=O)N1C[C@H](N)C[C@H](C(=O)Nc2ccc(Cl)c(F)c2)C1 [(3R,5S)-MCG-IV-273]
The “Fold over BNM-III-170 - 17b binding (±0.05)” value (shortened to “Fold … (±0.05)”) of the first is higher: 0.11 fold for the first, 0.06 fold for the second.

Going from `NCCOC(=O)N1C[C@H](N)C[C@H](C(=O)Nc2ccc(Cl)c(F)c2)C1` [(3R,5S)-MCG-IV-272] to `NCCOC(=O)N1CCC[C@H](C(=O)Nc2ccc(Cl)c(F)c2)C1` [(S)-MCG-IV-267], the “Fold … (±0.05)” value rises from 0.07 fold to 0.30 fold.

Going from `NCCCNC(=O)N1C[C@H](N)C[C@H](C(=O)Nc2ccc(Cl)c(F)c2)C1` [(3R,5S)-MCG-IV-274] to `NCCCNC(=O)N1CCC[C@H](C(=O)Nc2ccc(Cl)c(F)c2)C1` [(S)-MCG-IV-211], the “Fold … (±0.05)” value rises from 0.06 fold to 0.25 fold.

Compared with `CS(=O)(=O)N1CCC[C@@H](C(=O)Nc2ccc(Cl)cc2)C1` [(R)-MCG-II-156], `CS(=O)(=O)N1CCC[C@H](C(=O)Nc2ccc(C(F)(F)F)c(F)c2)C1` [(S)-MCG-IV-024-A02] is higher in “Fold … (±0.05)” value: 0.08 fold for the first, 0.38 fold for the second.

Going from `O=C(Nc1ccc(Cl)c(F)c1)[C@H]1CCCN(S(=O)(=O)c2cccnc2)C1` [(S)-MCG-III-116-A01] to `O=C(Nc1ccc(Cl)c(F)c1)[C@H]1CCCN(S(=O)(=O)C2CCCCC2)C1` [(S)-MCG-III-116-A03], the “Fold … (±0.05)” value falls from 0.41 fold to 0.36 fold.

Going from `CCS(=O)(=O)N1CCC[C@H](C(=O)Nc2ccc(C(F)(F)F)c(F)c2)C1` [(S)-MCG-IV-024-B02] to `CCOC(=O)N1CCC[C@H](C(=O)Nc2ccc(C(F)(F)F)c(F)c2)C1` [(S)-MCG-IV-050-A02], the “Fold … (±0.05)” value rises from 0.36 fold to 0.49 fold.

Compared with `CCNC(=O)N1CCC[C@H](C(=O)Nc2ccc(Cl)c(F)c2)C1` [(S)-MCG-IV-031-A02], `CC(C)CNC(=O)N1CCC[C@H](C(=O)Nc2ccc(Cl)c(F)c2)C1` [(S)-MCG-IV-031-A06] is higher in “Fold … (±0.05)” value: 0.37 fold for the first, 0.42 fold for the second.

Going from `CN(C)C(=O)N1CCC[C@H](C(=O)Nc2ccc(Cl)c(F)c2)C1` [(S)-MCG-IV-031-A03] to `CCN(C)C(=O)N1CCC[C@H](C(=O)Nc2ccc(Cl)c(F)c2)C1` [(S)-MCG-IV-031-A04], the “Fold … (±0.05)” value falls from 0.71 fold to 0.54 fold.

First: COC(=O)N1CCC[C@H](C(=O)Nc2ccc(C(F)(F)F)c(F)c2)C1 [(S)-MCG-IV-050-A01]
Second: CNC(=O)N1CCC[C@H](C(=O)Nc2ccc(C(F)(F)F)c(F)c2)C1 [(S)-MCG-IV-063-A01]
The “Fold … (±0.05)” value of the first is higher: 0.44 fold for the first, 0.33 fold for the second.

First: CNC(=N)N1CCC[C@H](C(=O)Nc2ccc(Cl)c(F)c2)C1 [(S)-MCG-IV-053-A01]
Second: CCCNC(=N)N1CCC[C@H](C(=O)Nc2ccc(Cl)c(F)c2)C1 [(S)-MCG-IV-053-A05]
The “Fold … (±0.05)” value of the first is lower: 0.42 fold for the first, 0.85 fold for the second.

First: CC(C)CNC(=N)N1CCC[C@H](C(=O)Nc2ccc(Cl)c(F)c2)C1 [(S)-MCG-IV-053-A06]
Second: CC(C)COC(=O)N1CCC[C@H](C(=O)Nc2ccc(Cl)c(F)c2)C1 [(S)-MCG-IV-061]
The “Fold … (±0.05)” value of the first is lower: 0.60 fold for the first, 0.62 fold for the second.

First: CCCOC(=O)N1CCC[C@H](C(=O)Nc2ccc(Cl)c(F)c2)C1 [(S)-MCG-IV-058]
Second: CCCNC(=O)N1CCC[C@H](C(=O)Nc2ccc(C(F)(F)F)c(F)c2)C1 [(S)-MCG-IV-063-A05]
The “Fold … (±0.05)” value of the first is higher: 0.51 fold for the first, 0.45 fold for the second.

First: CCNC(=O)N1CCC[C@H](C(=O)Nc2ccc(C(F)(F)F)c(F)c2)C1 [(S)-MCG-IV-063-A02]
Second: CC(C)CNC(=O)N1CCC[C@H](C(=O)Nc2ccc(C(F)(F)F)c(F)c2)C1 [(S)-MCG-IV-063-A06]
The “Fold … (±0.05)” value of the first is lower: 0.35 fold for the first, 0.36 fold for the second.

With `CN(C)C(=O)N1CCC[C@H](C(=O)Nc2ccc(C(F)(F)F)c(F)c2)C1` [(S)-MCG-IV-063-A03] the “Fold … (±0.05)” value was 0.48 fold.

In the case of `CS(=O)(=O)N1CCC[C@H](C(=O)Nc2ccc(Cl)cc2)C1` [(S)-MCG-II-153], the “Fold … (±0.05)” value was 0.20 fold and 0.31 fold.

Same assay, conditions: high-throughput screen follow-up; sCD4 as control; result in words

In the case of `CS(=O)(=O)N1CCC[C@@H](C(=O)Nc2ccc(Cl)cc2)C1` [(R)-MCG-II-156], the “17b binding in the CBE assay (screening hit and enantiomers)” value was “not”.
With `CS(=O)(=O)N1CCC[C@H](C(=O)Nc2ccc(Cl)cc2)C1` [(S)-MCG-II-153] the “17b binding in the CBE assay (screening hit and enantiomers)” value was “enhanced 17b binding to similar levels as UM0059920; also recorded: active enantiomer”.
